From US6057326A, “Bicyclic 4-aralkylaminopyrimidine derivatives as tyrosine kinase inhibitors” (Pharmacia & Upjohn S.p.A, priority 1996, dated 2000)
Like-named read-outs stand apart in the source and are kept apart here.

What was measured:
[1] = tested on: EGF-induced tyrosine phosphorylation in A431 cells; assay: Inhibition of cellular tyrosine autophosphorylation (VAP assay); assay type: cell-based; settings: Homo sapiens, A-431, 10 min, read-out: VAP IC50
Description: Inhibition of cellular tyrosine autophosphorylation (VAP assay)
EGF is able to induce the phosphorylation in tyrosine of a specific set of intracellular proteins including EGFR itself. This increase in tyrosine phosphorylation was measured using the Vectastain-ABC-AP kit (Vector Laboratories) following the manufacturer's instructions. Briefly, 2×10^4 A431 cells per well were plated into a microtiter plate and incubated for 3 days at 37° C./5% CO2 until the cultures reached confluency. Cell monolayers were washed with PBS and covered with fresh medium containing 0.1 bovine serum albumin (BSA). Serial dilution of test compounds were added 2 h before the addition of 100 ng/ml EGF; after 10 min stimulation the culture medium was withdrawn, cells were washed 2 times with PBS and fixed for 10 min with cold methanol (-20° C.). After fixation […] of blocking solution (3% BSA in PBS, 0.2% Tween 20, 1% normal horse serum) were added for 1 h at 37° C. Blocking solution was replaced with 3% BSA in PBS containing the antiphosphotyrosine antibody 4G10 (UBI) diluted 1:30000 and incubated for 1 h. […] Reaction was developed for 30 min in the dark and the plates were read at 405 nm.

[2] = target: T1, EGFR (Homo sapiens, UniProt P00533); assay: EGFR-Autophosphorylation Assay (AMIKA assay); assay type: biochemical; settings: A431 membranes; for inhibition at 1 µM: 1 μM compound; for inhibition at 1 µM / inhibition at 10 µM: EGF-stimulated; for inhibition at 10 µM: 10 μM compound; for IC50: EGF 200 nM pre-treatment
T1 construct: A431 crude membrane extracts as source of the receptor; endogenous in cells; host or cells: A431 human epidermoid carcinoma cells, crude membranes
T1 sequence (P00533 25-1210): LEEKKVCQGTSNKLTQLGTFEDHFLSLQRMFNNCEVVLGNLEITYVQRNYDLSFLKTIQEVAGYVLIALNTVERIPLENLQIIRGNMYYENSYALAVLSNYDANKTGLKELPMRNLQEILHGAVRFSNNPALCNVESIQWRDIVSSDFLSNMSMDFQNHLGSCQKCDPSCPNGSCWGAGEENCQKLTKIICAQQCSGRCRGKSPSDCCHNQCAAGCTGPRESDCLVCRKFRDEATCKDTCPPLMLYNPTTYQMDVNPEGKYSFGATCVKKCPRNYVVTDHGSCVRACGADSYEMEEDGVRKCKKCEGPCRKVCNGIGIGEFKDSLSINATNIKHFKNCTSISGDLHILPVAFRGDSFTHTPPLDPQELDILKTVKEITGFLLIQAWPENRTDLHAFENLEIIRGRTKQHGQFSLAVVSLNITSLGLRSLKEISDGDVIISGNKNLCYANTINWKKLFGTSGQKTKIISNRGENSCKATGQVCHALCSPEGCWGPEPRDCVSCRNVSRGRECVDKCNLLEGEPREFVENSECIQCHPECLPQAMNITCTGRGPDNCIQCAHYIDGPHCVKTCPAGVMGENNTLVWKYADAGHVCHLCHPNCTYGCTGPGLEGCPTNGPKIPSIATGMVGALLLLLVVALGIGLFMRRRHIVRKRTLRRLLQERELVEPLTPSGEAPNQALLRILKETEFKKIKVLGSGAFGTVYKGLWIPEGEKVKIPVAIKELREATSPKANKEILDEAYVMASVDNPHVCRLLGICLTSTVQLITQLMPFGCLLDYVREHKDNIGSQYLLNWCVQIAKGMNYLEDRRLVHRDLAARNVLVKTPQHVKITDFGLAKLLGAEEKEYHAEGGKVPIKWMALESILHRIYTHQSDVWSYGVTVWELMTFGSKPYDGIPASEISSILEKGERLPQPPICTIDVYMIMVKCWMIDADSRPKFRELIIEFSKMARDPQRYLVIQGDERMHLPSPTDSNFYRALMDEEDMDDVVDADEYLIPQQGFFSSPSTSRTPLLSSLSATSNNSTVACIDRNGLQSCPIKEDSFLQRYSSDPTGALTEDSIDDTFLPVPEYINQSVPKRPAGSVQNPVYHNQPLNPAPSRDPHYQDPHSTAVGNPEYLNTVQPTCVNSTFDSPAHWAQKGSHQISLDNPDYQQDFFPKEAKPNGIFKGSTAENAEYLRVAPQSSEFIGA
Description: EGFR-Autophosphorylation Assay (AMIKA assay) The EGFR autophosphorylation was assayed using A431 crude membrane extracts as source of the receptor. Membrane purification: Membranes were prepared as reported by A. Levitzky et al. (Methods in Enzymology 201, 347 (1991) with minor modifications and adapting the method to the A431 human epidermoid carcinoma cell line. Briefly, low density cells growing in RPMI 1640 plus 10% foetal calf serum were detached using 1 mM EDTA in phosphate buffer saline (PBS) and lysed in cold Lysing buffer (1 ml/10^6 cells) (20 mM HEPES pH 7.6, 10 mM NaCl, 2 mM EDTA, […], 1 mM PMSF). Cells were homogenized by 10 strokes in Dounce homogenizer. Nuclei and debris were removed by low speed centrifugation. Membranes were pelletized by ultracentrifugation (1 h, 100000×g) and resuspended in cold HNG buffer (50 mM HEPES pH 7.6, 125 mM NaCl, 10% glycerol). Protein concentration, determined by Pierce BCA method, was adjusted to 1.5-2 mg/ml. Aliquots were stored at -80° C. Determination of IC50 : […] The reaction was stopped with […] solution. The samples were heated 5 min at 95° C. and submitted to SDS-PAGE (7.5% acrylamide gel). Gels were fixed in 40% methanol:10% acetic acid for 1 h and washed overnight with 20% methanol:7% acetic acid. After 15 min in 50% methanol:2% glycerol gels were dried and exposed overnight. Bands corresponding to EGFR were excised from the gels and counted in a β-counter.

[3] = tested on: A431 cells; assay: SRB-Antiproliferative assay (A431 assay); assay type: cell-based; settings: Homo sapiens, A-431, 72 h, read-out: A431 IC50
Description: SRB-Antiproliferative assay (A431 assay)
A431 cells were seeded into 96-well microtiter plates (5000 cells/cm^2) and incubated overnight at 37° C./5% CO2. Compounds dissolved in DMSO were added in serial dilution and plates were incubated for 3 days at 37° C./5% CO2. Cells were fixed with cold TCA (10% final concentration) and stained with 0.4% Sulforhodamine B dye in 1% acetic acid for 30 min.

Row | SMILES | IC50 ([1]; A431 cells, 100 ng/ml EGF, 10 min stimulation) [nM] | inhibition at 1 µM [2] [%] | inhibition at 10 µM [2] [%] | IC50 [2] [nM] | IC50 ([3]; A431 cells, 3 days, SRB) [nM] | IC50 [1] [nM] | IC50 [3] [nM]
1 | COc1cc2ncnc(N[C@H](CO)c3ccccc3)c2cc1OC [FCE 29771, (S)-4-[α-(hydroxymethyl)benzylamino]-6,7dimethoxyquinazoline] | 800 | 93.8 | 98.3 | 24 | > 1560 |  | 
2 | COc1cc2ncnc(N[C@H](COC(C)=O)c3ccccc3)c2cc1OC [FCE 29772, (S)-4-[α-(acetoxymethyl)benzylamino]-6,7dimethoxyquinazoline] |  | 94.9 | 98 | 81 |  | 1310 | 5300
